The text below walks through data of paper PMC5336358, “Origin and evolution of transporter substrate specificity within the NPF family” (eLife, 2017).

In series [1] the target is T1, BrGTR1 (BrF01711) (Brassica rapa, UniProt A0A8D9DAH7).
T1 construct: gene BRAPAZ1V2_A06P20680.2; full-length untagged, codon-optimized cRNA in Xenopus laevis oocytes; primer encodes N-term MERKPFE
T1 sequence (A0A8D9DAH7 1-615): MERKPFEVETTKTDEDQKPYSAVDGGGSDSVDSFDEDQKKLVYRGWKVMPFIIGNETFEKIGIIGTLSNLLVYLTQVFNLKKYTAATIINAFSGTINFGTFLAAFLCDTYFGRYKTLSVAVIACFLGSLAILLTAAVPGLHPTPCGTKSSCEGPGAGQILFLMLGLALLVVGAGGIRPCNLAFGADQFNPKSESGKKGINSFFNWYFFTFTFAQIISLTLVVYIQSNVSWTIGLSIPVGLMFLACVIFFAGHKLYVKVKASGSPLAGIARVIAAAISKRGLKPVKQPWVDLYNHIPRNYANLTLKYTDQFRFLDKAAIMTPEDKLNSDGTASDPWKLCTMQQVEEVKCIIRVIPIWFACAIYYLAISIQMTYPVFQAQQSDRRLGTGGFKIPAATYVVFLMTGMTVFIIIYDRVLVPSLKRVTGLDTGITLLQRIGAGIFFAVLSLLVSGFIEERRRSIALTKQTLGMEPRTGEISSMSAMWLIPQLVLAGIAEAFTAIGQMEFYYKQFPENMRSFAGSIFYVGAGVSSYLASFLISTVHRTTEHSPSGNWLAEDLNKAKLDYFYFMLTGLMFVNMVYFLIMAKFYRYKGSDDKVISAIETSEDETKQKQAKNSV
Briefly: oocyte uptake, LC-MS; TEVC currents. The format is cell-based. As to conditions: […] substrate, pH […] min.

Series [2] has as its system T2, CpGTRL2 (Cp17.190).
T2 construct: full-length untagged, codon-optimized cRNA in Xenopus laevis oocytes; primer encodes N-term MEMDGKE
Briefly: TEVC currents in Xenopus oocytes, Michaelis-Menten fit. The format is cell-based, Carica papaya. The following applies: pH 5, -60 mV membrane potential.

In series [3] the target is T3, Me14G074000 (Manihot esculenta, UniProt A0A2C9ULI5).
T3 construct: gene MANES_14G074000v8; full-length untagged, codon-optimized cRNA in Xenopus laevis oocytes; primer encodes N-term MATGETI
Briefly: oocyte uptake, LC-MS. The format is cell-based. As to conditions: 0.2 mM substrate, pH 5, 60 min.

For series [4], the target named is T4, BrGTR3 (BrH02396) (Brassica rapa, UniProt A0A397YP93).
T4 construct: gene BRARA_H02396; full-length untagged, codon-optimized cRNA in Xenopus laevis oocytes; primer encodes N-term MEVEKTQE
T4 sequence (A0A397YP93 1-591): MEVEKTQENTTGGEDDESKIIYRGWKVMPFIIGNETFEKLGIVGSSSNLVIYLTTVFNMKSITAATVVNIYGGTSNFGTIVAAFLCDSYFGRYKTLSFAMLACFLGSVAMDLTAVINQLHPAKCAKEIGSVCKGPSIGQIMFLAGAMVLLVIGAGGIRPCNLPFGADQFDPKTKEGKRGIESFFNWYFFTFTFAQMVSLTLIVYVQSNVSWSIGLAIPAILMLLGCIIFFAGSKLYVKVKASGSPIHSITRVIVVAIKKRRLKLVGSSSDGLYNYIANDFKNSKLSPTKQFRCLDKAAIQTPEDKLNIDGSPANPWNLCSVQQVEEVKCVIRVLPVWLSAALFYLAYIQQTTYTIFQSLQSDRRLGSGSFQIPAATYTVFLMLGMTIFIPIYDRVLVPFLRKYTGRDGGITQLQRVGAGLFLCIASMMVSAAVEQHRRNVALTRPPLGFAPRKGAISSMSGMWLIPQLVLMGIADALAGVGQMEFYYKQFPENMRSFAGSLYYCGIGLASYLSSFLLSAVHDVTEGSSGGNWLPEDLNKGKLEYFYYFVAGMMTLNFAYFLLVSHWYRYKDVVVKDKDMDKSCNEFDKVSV
Kind of series: oocyte uptake, LC-MS; TEVC currents. The format is cell-based. As to conditions: […] substrate, pH […] min.

For series [5], the target named is T5, GTR3 (NPF2.9, At1g18880) (Arabidopsis thaliana, UniProt Q9M9V7).
T5 construct: full-length untagged, cRNA in Xenopus laevis oocytes
T5 sequence (Q9M9V7 1-587): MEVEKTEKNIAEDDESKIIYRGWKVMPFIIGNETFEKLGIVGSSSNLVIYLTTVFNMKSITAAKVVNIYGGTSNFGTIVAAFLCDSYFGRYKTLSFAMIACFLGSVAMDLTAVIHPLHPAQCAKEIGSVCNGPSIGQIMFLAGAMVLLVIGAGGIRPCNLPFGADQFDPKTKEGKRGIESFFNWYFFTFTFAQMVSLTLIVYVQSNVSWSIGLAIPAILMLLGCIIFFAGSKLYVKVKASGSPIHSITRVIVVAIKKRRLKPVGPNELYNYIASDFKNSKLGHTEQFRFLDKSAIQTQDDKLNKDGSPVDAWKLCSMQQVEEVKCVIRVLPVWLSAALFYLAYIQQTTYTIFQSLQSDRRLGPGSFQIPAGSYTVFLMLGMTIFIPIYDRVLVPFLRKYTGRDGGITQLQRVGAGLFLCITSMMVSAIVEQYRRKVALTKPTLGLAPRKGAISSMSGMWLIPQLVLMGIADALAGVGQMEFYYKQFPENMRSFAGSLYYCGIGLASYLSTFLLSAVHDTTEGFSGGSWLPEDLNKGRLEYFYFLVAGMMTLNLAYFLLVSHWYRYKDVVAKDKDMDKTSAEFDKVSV
Briefly: TEVC currents in Xenopus oocytes, Michaelis-Menten fit. The format is cell-based. As to conditions: pH 5, -60 mV membrane potential.

Series [6] addresses T6, GTR1 (AtGTR1, NPF2.10) (Arabidopsis thaliana, UniProt Q944G5).
T6 construct: full-length untagged, cRNA in Xenopus laevis oocytes
T6 sequence (Q944G5 1-636): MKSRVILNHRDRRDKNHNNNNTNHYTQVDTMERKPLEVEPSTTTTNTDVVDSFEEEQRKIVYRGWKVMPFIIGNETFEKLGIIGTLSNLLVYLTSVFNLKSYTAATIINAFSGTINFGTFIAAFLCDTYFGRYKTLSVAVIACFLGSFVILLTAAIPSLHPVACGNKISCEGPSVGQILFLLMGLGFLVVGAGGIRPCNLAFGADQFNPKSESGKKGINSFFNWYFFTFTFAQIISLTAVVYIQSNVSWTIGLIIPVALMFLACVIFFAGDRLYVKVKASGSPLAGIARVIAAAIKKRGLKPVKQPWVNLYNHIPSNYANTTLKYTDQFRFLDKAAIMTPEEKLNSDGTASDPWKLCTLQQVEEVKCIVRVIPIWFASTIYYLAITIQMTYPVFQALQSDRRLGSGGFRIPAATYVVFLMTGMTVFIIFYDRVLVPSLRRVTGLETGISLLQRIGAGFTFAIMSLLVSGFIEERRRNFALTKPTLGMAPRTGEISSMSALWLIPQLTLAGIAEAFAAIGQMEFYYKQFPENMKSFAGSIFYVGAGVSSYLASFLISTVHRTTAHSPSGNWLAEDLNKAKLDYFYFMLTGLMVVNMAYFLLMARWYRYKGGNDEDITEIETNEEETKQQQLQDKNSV
Described as above. The format is cell-based. The following applies: pH 5, -60 mV membrane potential.

In series [7] the target is T7, GTR2 (AtGTR2, NPF2.11) (Arabidopsis thaliana, UniProt Q9LV10).
T7 construct: full-length untagged, cRNA in Xenopus laevis oocytes
T7 sequence (Q9LV10 1-616): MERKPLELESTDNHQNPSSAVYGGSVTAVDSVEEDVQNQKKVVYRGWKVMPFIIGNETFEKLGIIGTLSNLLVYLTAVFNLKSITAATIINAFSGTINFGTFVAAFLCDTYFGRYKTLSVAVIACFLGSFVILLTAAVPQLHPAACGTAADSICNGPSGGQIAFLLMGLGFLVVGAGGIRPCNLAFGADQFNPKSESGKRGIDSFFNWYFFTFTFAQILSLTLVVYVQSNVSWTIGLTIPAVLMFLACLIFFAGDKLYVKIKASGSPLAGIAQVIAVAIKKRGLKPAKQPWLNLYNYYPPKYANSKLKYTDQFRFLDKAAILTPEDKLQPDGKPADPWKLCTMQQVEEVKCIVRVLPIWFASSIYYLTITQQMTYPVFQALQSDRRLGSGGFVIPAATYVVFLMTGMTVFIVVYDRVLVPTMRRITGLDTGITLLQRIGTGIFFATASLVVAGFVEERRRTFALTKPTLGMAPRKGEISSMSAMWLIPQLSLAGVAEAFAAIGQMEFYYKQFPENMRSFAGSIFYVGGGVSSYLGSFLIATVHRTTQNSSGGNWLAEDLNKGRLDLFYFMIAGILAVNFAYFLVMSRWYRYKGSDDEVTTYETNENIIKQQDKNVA
Described as above. The format is cell-based. The following applies: pH 5, -60 mV membrane potential.

In series [8] the target is T8, Me15G176100 (Manihot esculenta, UniProt A0A2C9UH66).
T8 construct: gene MANES_15G175484v8; full-length untagged, codon-optimized cRNA in Xenopus laevis oocytes; primer encodes N-term MEDKEEKS
Briefly: oocyte uptake, LC-MS. The format is cell-based. The following applies: 0.2 mM substrate, pH 5, 60 min.

Substrate in series [9]: CC(C)(C#N)O[C@@H]1O[C@H](CO)[C@@H](O)[C@H](O)[C@H]1O
Kind of series: TEVC currents in Xenopus oocytes, Michaelis-Menten fit. The format is cell-based, Manihot esculenta. As to conditions: pH 5, -60 mV membrane potential.

Substrate in series [10]: N#C[C@H](O[C@@H]1O[C@H](CO)[C@@H](O)[C@H](O)[C@H]1O)c1ccccc1
The description is as above. As to conditions: pH 5, -60 mV membrane potential. The format is cell-based, Manihot esculenta.

T3 sequence (A0A2C9ULI5 entry or part of it): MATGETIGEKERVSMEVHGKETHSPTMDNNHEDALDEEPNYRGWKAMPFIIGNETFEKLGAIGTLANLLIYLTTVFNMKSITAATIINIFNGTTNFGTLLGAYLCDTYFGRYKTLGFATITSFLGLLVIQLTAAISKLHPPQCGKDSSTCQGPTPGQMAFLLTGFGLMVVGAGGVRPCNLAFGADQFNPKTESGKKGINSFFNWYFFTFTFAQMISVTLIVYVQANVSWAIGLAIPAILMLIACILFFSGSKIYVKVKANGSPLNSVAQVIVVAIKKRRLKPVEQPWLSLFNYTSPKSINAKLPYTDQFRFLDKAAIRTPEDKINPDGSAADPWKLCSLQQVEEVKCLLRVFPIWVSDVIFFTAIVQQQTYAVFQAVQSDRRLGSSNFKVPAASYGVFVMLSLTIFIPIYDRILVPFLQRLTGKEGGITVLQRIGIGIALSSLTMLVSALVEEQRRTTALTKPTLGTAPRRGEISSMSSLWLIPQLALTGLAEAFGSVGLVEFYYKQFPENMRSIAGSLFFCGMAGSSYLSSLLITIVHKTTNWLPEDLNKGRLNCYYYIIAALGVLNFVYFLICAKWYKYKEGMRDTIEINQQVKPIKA
T8 sequence (A0A2C9UH66 entry or part of it): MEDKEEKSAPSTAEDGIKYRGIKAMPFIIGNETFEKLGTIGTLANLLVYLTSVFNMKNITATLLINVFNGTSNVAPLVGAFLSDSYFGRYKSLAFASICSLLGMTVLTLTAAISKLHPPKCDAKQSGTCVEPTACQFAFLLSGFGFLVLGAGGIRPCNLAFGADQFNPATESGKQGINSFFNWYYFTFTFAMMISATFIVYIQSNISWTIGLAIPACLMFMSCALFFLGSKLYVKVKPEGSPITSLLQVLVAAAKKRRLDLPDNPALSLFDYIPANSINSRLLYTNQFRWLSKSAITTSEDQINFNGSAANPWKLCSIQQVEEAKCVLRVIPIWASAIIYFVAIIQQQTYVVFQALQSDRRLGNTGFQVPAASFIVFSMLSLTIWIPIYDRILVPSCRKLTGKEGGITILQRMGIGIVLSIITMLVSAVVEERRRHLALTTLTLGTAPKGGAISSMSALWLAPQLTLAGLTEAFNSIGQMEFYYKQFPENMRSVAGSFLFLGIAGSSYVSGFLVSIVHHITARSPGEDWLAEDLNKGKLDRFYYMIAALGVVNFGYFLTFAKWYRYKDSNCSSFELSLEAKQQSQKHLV

On to `CSCCCC/C(=N/OS(=O)(=O)O)S[C@@H]1O[C@H](CO)[C@@H](O)[C@H](O)[C@H]1O` [4MTB, 4-methylthiobutyl glucosinolate], for which, in series [1], the “oocyte uptake, LC-MS; TEVC currents” value was “BrGTR1 ortholog (BrF01711) transported 4MTB and I3M with similar efficiency”. Moreover, in series [2], the Km (in general, the substrate concentration at which the rate is half of its maximum) came to 85 ± 12 µM. Also, the “oocyte uptake, LC-MS” value in series [3] is “Me14G074000 from cassava over-accumulated both 4MTB and I3M relative to external media”.

As to `O=S(=O)(O)O/N=C(/Cc1c[nH]c2ccccc12)S[C@@H]1O[C@H](CO)[C@@H](O)[C@H](O)[C@H]1O` [I3M, indol-3-yl-methyl glucosinolate], the “oocyte uptake, LC-MS; TEVC currents” value in series [4] is “strong preference for I3M by the tested BrGTR3 ortholog (BrH02396)”; in series [1], “BrGTR1 ortholog (BrF01711) transported 4MTB and I3M with similar efficiency”. Further, the Km in series [5], in [6] and in [7] was less than 25 µM throughout.

Turning to `N#C[C@H](O[C@@H]1O[C@H](CO)[C@@H](O)[C@H](O)[C@H]1O)c1ccccc1` [prunasin], the “oocyte uptake, LC-MS” value in [8] is “Uptake of prunasin was detected in oocytes expressing Me15G176100”; in series [3], “Me14G074000 from cassava accumulated prunasin, but not linamarin, to levels equivalent to media”.

B1: MeCGTR1 (Me15G180400) (Manihot esculenta) (protein)
chain: MENGNDHAQDQQKSIEKDEEPVINYRGIKAMPFIIGNETFEKLGTVGSSTNLVVYLNTVFNLKSVTATTLVNIFNGTTNLAPLLGAFLCDTYFGRYKTLGFASVASFLGMSALALTAAVPTLHPPKCVGKESSQCVGPSIWQLAFLLCGFGLIAIGAGGIRPCNLAFGAEQFNPNTESGKRGMSSFFNWYYFTYTFAVMVSVTGIVYVQSDVSWAIGLAIPAFLMFLSCAVFFIGTKIYVIVKPEGSPITSVVQVLVVSVKKRGLKLPQNPAVSLFNYVPAKSINSRLSHTEQFSFLDKAAIVTEKDEINLDGSAANPWRLCSIQQVEEVKCMVRIIPIWASAIIYHVPLIQQQTYAVLQALQLDRRLGTGSFEIPAATFIIFTMLALTIWIPIYDRILVPFLQRLTGKEGGFTLLQRMGIGILLSVLCMFVSGLVESHRRDIALSKPTLGISPKGGAVSSMTWLWLVPQLALAGLSEGFNYVSQIEFYYKQFPENMRSIAGSSFFAGLALANFLSGLLVSTIHKITSATKSGDWLSEDLNKGKLDHFYYVIGVLGTVNMAYFLLCAKWYRYKVREDDGSVEMSNKSSVKHHV
notes: full-length untagged, codon-optimized cRNA in Xenopus laevis oocytes (pNB1u); primer encodes N-term MENGNDH
Take B1: the Michaelis constant (Km) is recorded as 262 ± 15 µM in series [9] and 80 ± 7 µM in series [10].
